Data on 12 compounds can be found in patent US20100015258A1, “Rice Bran Extracts and Methods of Use Thereof” (priority 2008, published 2010).

The target in experiment [1] is T1, Fatty Acid Binding Protein 4 (FABP4) (Homo sapiens, UniProt P15090).
T1 construct: purchased Cayman, Ann Arbor, Mich
As to the kind of experiment: FABP4 Inhibitor/Ligand Screening Kit (fluorescence). The conditions noted are these: based on contribution across all actives, read-out: Predicted IC50. On the procedure:
Fatty Acid Binding Protein 4 (FABP4) inhibition was determined using the Fatty Acid Binding Protein 4 (FABP4) Inhibitor/Ligand Screening Kit (Cayman, Ann Arbor, Mich.). […] Potential inhibitors/ligands of the FABP4 protein were incubated to FABP4 in assay buffer for 15 minutes at room temperature. Arachidonic acid was used as a known inhibitor standard for comparison. The positive control wells received no inhibitor/ligand (i.e., no arachidonic acid or extract) and the negative control wells received no FABP4. The extracts, in solution, were then exposed to a developer that will fluoresce when bound to FABP4. If FABP4 is inhibited, reduction in fluorescence yield is observed. Fluorescence was quantified using a Synergy 4 plate reader that is tuned to excitation/emission wavelengths of 370 nm and 475 nm, respectively. The fluorescence of the negative controls was subtracted from the positive control wells, and the fluorescence from the “undetected” wells was subtracted from the corresponding “detected” wells. An IC50 value was determined based on the percent fluorescence of the corrected extract wells relative to the corrected positive controls.

The subject of experiment [2] is 3T3-L1 cells. Nature of the experiment: [1,2-3H]2-Deoxy-D-glucose (2-deoxyglucose) uptake. It counts as cell-based. The conditions noted are these: for CPM (glucose uptake): 3T3-L1 cells. The method, then: 1. [1,2-^3H]2-Deoxy-D-glucose (2-deoxyglucose) Uptake: Cells, 3T3-L adipocytes, were grown and differentiated as described below. Prior to [^3H]2-deoxyglucose uptake, cells were switched to DMEM with 0.1% bovine serum albumin for 6 h. The [^3H]2-deoxyglucose uptake was assayed as described (D. R. Cooper, J. E. Watson, N. Patel, P. Illingworth, M. Cevedo-Duncan, J. Goodnight, C. E. Chalfant, and H. Mischak, 1999. Ectopic expression of protein kinase CbetaII, -delta, and -epsilon, but not-betaI or -zeta, provide for insulin stimulation of glucose uptake in NIH-3T3 cells. Arch. Biochem. Biophys., 372:69-79; T. P Ciraldi, O. G. Kolterman, and J. M. Olesky, 1981. Mechanism of the postreceptor defect in insulin action in human obesity: decrease in glucose transport system activity. J. Clin Invest., 68:875-880.). […] Uptake was measured by the addition of 10 nmol of [^3H] 2-deoxyglucose (50-150 μCi/μmol) and followed by incubation for 6 min at 37° C. The uptake was terminated by aspiration of media and cell monolayers were washed three times with cold DPBS. Cells were lysed with 1 ml of 1% (w/v) SDS, and radioactivity determined by liquid scintillation counting. The 2-Deoxyglucose uptake refers to transport of the analogue across the plasma membrane operating in tandem with its phosphorylation by hexokinase.

Setting [3] is: range across SRB Extracts 1 to 14.

Read-outs that look alike come from different tables or passages of the source.

T1 sequence (P15090 whole entry, species assumed): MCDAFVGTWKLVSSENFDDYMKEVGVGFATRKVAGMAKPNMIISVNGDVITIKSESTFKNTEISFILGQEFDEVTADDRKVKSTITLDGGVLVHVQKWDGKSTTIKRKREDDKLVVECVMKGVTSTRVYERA

Regarding `CCCCC/C=C\C/C=C\CCCCCCCC(=O)OCC(CO)OC(=O)CCCCCCC/C=C\C/C=C\CCCCC` (centres unmarked) [Glycerol 1,2-di-(9Z,12Z-octadecadienoate)], the IC50 was 24.7 µM in experiment [1] (in SRB Extract 6) and 4.89 to 56 µM in experiment [1] (setting [3]).

Turning to `CC1(C)CCC2(C)CCC3(C)C(=C2C1)C=CC1C2(C)CCCC(C)(C)C2CCC13C` (centres unmarked) [11,13(18)-Oleanadiene], the IC50 is 91 µM in experiment [1] (in SRB Extract 6) and 28.3 to 90.3 µM in experiment [1] (setting [3]).

Take `C=C(CCC(C)C1CCC2(C)C3CCC4CC(O)CCC45CC35CCC12C)C(C)C` (centres unmarked) [14-Methyl-9,19-cycloergost-24(28)-en-3-ol]: the IC50 in experiment [1] (in SRB Extract 6) was 60.5 µM; in experiment [1] (setting [3]), 21.3 to 25.7 µM.

On to `CC(=O)CC/C=C(\C)CC/C=C(\C)CC/C=C(\C)CC/C=C(\C)CC/C=C(\C)CC/C=C(\C)CC/C=C(\C)CCC=C(C)C` [Bombiprenone], for which the results for the IC50 in experiment [1] (in SRB Extract 6) and in experiment [1] (setting [3]) were 26.5 µM and 6.96 to 81.2 µM, respectively.

For the compound “Insulin: insulin, comparator for glucose uptake stimulation”, the “Increase over 200 nM Insulin” value in experiment [2] (50 nM insulin) and in experiment [2] (100 nM insulin) was 0.6 in each case. Besides, the “Increase over Control” value in experiment [2] (50 nM insulin) stood at 1.1; in experiment [2] (100 nM insulin), 1.2; in experiment [2] (200 nM insulin), 2.0. Further, the “Max CPM” value in experiment [2] (50 nM insulin) was found to be 149 CPM; in experiment [2] (100 nM insulin), 157 CPM; in experiment [2] (200 nM insulin), 266 CPM. Besides, the entries for the “CPM (glucose uptake)” value in experiment [2] (insulin 50 nM), in experiment [2] (insulin 100 nM) and in experiment [2] (insulin 200 nM) were 149 CPM, 157 CPM and 266 CPM, respectively.

As for `CCCCCCCCCCCC/C=C\CC/C=C\CC[C@@H](O)[C@H](O)CCCCCCCCCCC1=C[C@H](C)OC1=O` [Montecristin], the 50% inhibitory concentration (IC50) in experiment [1] (in SRB Extract 6) is 40 µM; in experiment [1] (setting [3]), 17.4 to 69.5 µM.

As for “4,5-Dihydro-4-hydroxy-5-methyl-2-tetradecyl-2(3H)-furanone”, the IC50 in experiment [1] (in SRB Extract 6) is 73.3 µM; in experiment [1] (setting [3]) it was 61 to 85 µM.

Turning to 24-Nor-4(23),9(11)-fernadiene, the IC50 in experiment [1] (setting [3]) is 29.9 to 61.3 µM.

Take `CCCCCCCCCCCCCCCCCCCCCCCCCCCCCCOC(=O)C=Cc1ccc(O)c(O)c1` [3-(3,4-Dihydroxyphenyl)-2-propenoicacid Triacontyl ester]: the results for the IC50 in experiment [1] (in SRB Extract 6) and in experiment [1] (setting [3]) were 29.7 µM and 7.99 to 101 µM, respectively.

`CC[C@H]1CC[C@H]2[C@@H]3CC(O)C4CC(O)C(O)C[C@]4(C)[C@H]3CC[C@]12C` (some centres unmarked) [Pregnane-2,3,6-triol]: the IC50 in experiment [1] (in SRB Extract 6) is 69.4 µM; in experiment [1] (setting [3]), 44.2 to 80.4 µM.

Take `CCCCCCCCC=CCCCCCCCC1CC(O)C(=O)O1` (centres unmarked) [5-(8-Heptadecenyl)dihydro-3-hydroxy-2(3H)-furanone]: the results for the IC50 in experiment [1] (in SRB Extract 6) and in experiment [1] (setting [3]) were 96.8 µM and 38.9 to 117 µM, respectively.

On to `CC1CCC2(C)CCC3(C)C(=CCC4C5(C)CCCC(C)C5CCC43C)C2C1C` (centres unmarked) [24-Nor-12-ursene], for which the 50% inhibitory concentration (IC50) is 199 µM in experiment [1] (in SRB Extract 6) and 17.4 to 160 µM in experiment [1] (setting [3]).
